Assay results: patent publication US12428378B2, “Methods and materials for increasing level of phosphorylated AMPK protein” (University of Pittsburgh—Of the Commonwealth System of …, priority 2019, dated 2025)

Tested on: pAMPK
Assay: pAMPK immunostaining chemiluminescence assay in Beas2B cells
Type: cell-based
Conditions: Homo sapiens, BEAS-2B, 18 h, DMEM no glucose media, compounds 3-34, 36-44, 47-60 tested as HCl salts, read-out: efficacy (minimal compound concentration needed to increase pAMPK by 30%)
Description: Beas2B cells were plated in 384 white nunc plate (4000 cells per well) for overnight. Compounds were serially diluted in DMEM no glucose media using the liquid handler. Cells were washed once using Biotek EL406 before compound addition for additional 18 hours. Cells were washed and fixed with PFA before immunostained with pAMPK primary antibody and anti-Rabbit HRP secondary antibody. Finally, 25 μl of ECL reagent will be added to cells, and chemical luminescence signal will be counted using plate reader. Compounds efficacies (μM) were determined by the minimal compound concentration needed to increase pAMPK by 30%. Activity: “+” equals >10 μM; “++” equals between ≤10 μM and >1 μM; and “+++” equals ≤1 μM.

SMILES | EC (30% increase) [µM]
Cc1ccccc1CN(Cc1cnccc1C(F)(F)F)CC(O)COc1ccccc1 (centres unmarked) [compound 87] | 1 to 10
Cc1ccccc1CN(Cc1nccs1)CC(O)COc1ccc(C(F)(F)F)cc1 (centres unmarked) [compound 70] | ≤ 1
Cc1ccccc1CN(CC(O)COc1ccc(C(F)(F)F)cc1)C(=O)c1nccn1C (centres unmarked) [compound 83] | ≤ 1
Cn1cncc1C(=O)N(CCCOc1ccc(C(F)(F)F)cc1)Cc1ccccc1Cl [compound 125] | ≤ 1
O[C@@H](COc1ccc(C(F)(F)F)cc1)CN1Cc2ccccc2C[C@H]1c1cccnc1 [compound 134] | ≤ 1
FC(COc1ccc(C(F)(F)F)cc1)CN(Cc1cccnc1)Cc1ccccc1Cl (centres unmarked) [compound 164] | ≤ 1
Cc1ccccc1CN(Cc1cccnc1)C(=O)C(O)COc1ccc(C(F)(F)F)cc1 (centres unmarked) [compound 117] | 1 to 10
OC(COc1ccc(C(F)(F)F)cc1)CN1CCc2ccccc2[C@H]1c1ccccc1 (some centres unmarked) [compound 114] | > 10
Cc1ccccc1CN(Cc1ccc(=O)[nH]c1)CC(O)COc1ccc(C(F)(F)F)cc1 (centres unmarked) [compound 59] | 1 to 10
FC(F)(F)c1ccc(OCCCN(Cc2cccnc2)Cc2ccccc2C(F)(F)F)cc1 [compound 174] | ≤ 1
OC(COc1ccc(C(F)(F)F)cc1)CN1CCc2ccccc2C1c1cncs1 (centres unmarked) [compound 93] | 1 to 10
Cc1ccccc1CN(CCOc1ccc(C(F)(F)F)cc1)Cc1cncn1C [compound 171] | 1 to 10
FC(F)(F)c1ccc(OCCCN2Cc3ccccc3CC2c2cccnc2)cc1 (centres unmarked) [compound 65] | ≤ 1
Cc1ccccc1CN(CC(O)COc1ccc(C(F)(F)F)cc1)C(=O)c1nccs1 (centres unmarked) [compound 84] | ≤ 1
Cc1ccccc1CN(CC(O)COc1ccc(C(F)(F)F)cc1)S(=O)(=O)c1cccnc1 (centres unmarked) [compound 68] | ≤ 1
Cc1ccccc1CN(CC(O)COc1ccc(C(F)(F)F)cc1)C(C)c1nccn1C (centres unmarked) [compound 162] | > 10
O[C@@H](COc1ccc(C(F)(F)F)cc1)CN(Cc1ccccc1)Cc1ccccc1 [compound 1] | 1 to 10
Cc1ccccc1CN(Cc1ccccc1)CC(O)COc1ccc(C(F)(F)F)cc1 (centres unmarked) [compound 5] | 1 to 10
[2H]C1(c2cccnc2)c2ccccc2CCN1CCCOc1ccc(C(F)(F)F)cc1 (centres unmarked) [compound 101] | ≤ 1
Cc1cccc(C)c1OCC(O)CN(Cc1ccccc1)Cc1ccccc1 (centres unmarked) [compound 18] | ≤ 1
Cc1ccccc1CN(CC(O)COc1ccc(C(F)(F)F)cc1)C(C)c1cncs1 (centres unmarked) [compound 176] | 1 to 10
Cc1ccccc1CN(Cc1sccc1C)CC(O)COc1ccc(C(F)(F)F)cc1 (centres unmarked) [compound 71] | 1 to 10
Cn1cncc1C(=O)N(Cc1cccnc1)CC(C)(C)COc1ccc(C(F)(F)F)cc1 [compound 193] | ≤ 1
Cn1cncc1C(=O)N(Cc1ccccc1F)CC(O)COc1ccc(C(F)(F)F)cc1 (centres unmarked) [compound 153] | 1 to 10
OC(COc1ccc(C(F)(F)F)cc1)CN(CCc1ccccc1)Cc1ccccc1 (centres unmarked) [compound 6] | 1 to 10
CC(=O)OC(COc1ccc(C(F)(F)F)cc1)C(=O)N(Cc1cncs1)Cc1ccccc1Cl (centres unmarked) [compound 126] | > 10

SMILES | EC (30% increase) [µM]
CC(c1cccnc1)N(Cc1ccccc1)CC(O)COc1ccc(C(F)(F)F)cc1 (centres unmarked) [compound 46] | ≤ 1
Cc1ccccc1CN(Cc1cnc[nH]1)CC(O)COc1ccc(C(F)(F)F)cc1 (centres unmarked) [compound 39] | 1 to 10
O[C@H](COc1ccc(C(F)(F)F)cc1)CN1CCc2ccccc2[C@H]1c1ccccc1 [compound 115] | 1 to 10
Cc1ccccc1CN(Cc1cccnc1)CC(O)COc1ccc(C(F)(F)F)cn1 (centres unmarked) [compound 24] | > 10
Cc1ccccc1CN(CC(O)COc1ccc(C(F)(F)F)cc1)C(=O)c1cncn1C (centres unmarked) [compound 81] | ≤ 1
Cn1cncc1CN(CCCOc1ccc(C(F)(F)F)cc1)Cc1ccccc1Cl [compound 122] | ≤ 1
Cc1ccccc1CN(Cc1ccc(C(F)(F)F)nc1)CC(O)COc1ccc(F)cc1 (centres unmarked) [compound 44] | ≤ 1
[2H]C1(c2cccnc2)c2ccccc2CCN1CC(O)COc1ccc(C(F)(F)F)cc1 (centres unmarked) [compound 96] | ≤ 1
OC(COc1cccnc1)CN(Cc1ccccc1)Cc1ccccc1 (centres unmarked) [compound 9] | > 10
Cc1ccccc1CN(CC(O)COc1ccc(C(F)(F)F)cc1)c1cccc2ncccc12 (centres unmarked) [compound 54] | 1 to 10
O[C@@H](COc1ccc(C(F)(F)F)cc1)CN1CCc2ccccc2[C@H]1c1ccccc1 [compound 116] | > 10
OC(COc1ccc(C(F)(F)F)cc1)CN1CCc2ccccc2C1c1cccnc1 (centres unmarked) [compound 95] | ≤ 1
Cc1ccccc1CN(CCOc1ccc(C(F)(F)F)cc1)Cc1cccnc1 [compound 154] | ≤ 1
O[C@H](COc1ccc(C(F)(F)F)cc1)CN(Cc1ccccc1)Cc1ccccc1 [compound 2] | 1 to 10
Cc1ncccc1CN(Cc1cccnc1C)CC(O)COc1ccc(C(F)(F)F)cc1 (centres unmarked) [compound 30] | 1 to 10
Cc1ccccc1CN(CC(O)COc1ccc(C(F)(F)F)cc1)C(=O)c1cnco1 (centres unmarked) [compound 79] | 1 to 10
[2H]C1(c2cncs2)c2ccccc2CCN1CCCOc1ccc(C(F)(F)F)cc1 (centres unmarked) [compound 99] | ≤ 1
OC(COc1ccc(C(F)(F)F)cc1)CN(Cc1ccccn1)Cc1ccccn1 (centres unmarked) [compound 42] | ≤ 1
Cc1ccccc1CN(CC(O)COc1ccc(C(F)(F)F)cc1)C(=O)c1cscn1 (centres unmarked) [compound 85] | 1 to 10
Cc1ccccc1CN(Cc1cccc(C#N)c1)CC(O)COc1ccc(C(F)(F)F)cc1 (centres unmarked) [compound 50] | > 10
FC(F)(F)c1ccc(OCCCN2Cc3ccccc3CC2c2cncs2)cc1 (centres unmarked) [compound 124] | 1 to 10
O=C(c1cncs1)N(Cc1ccccc1Cl)CC(O)COc1ccc(C(F)(F)F)cc1 (centres unmarked) [compound 90] | ≤ 1
FC(F)(F)c1ccc(OCCCN2CCc3ccccc3C2c2cccnc2)cc1 (centres unmarked) [compound 100] | ≤ 1
[2H]C1(c2cncs2)c2ccccc2CCN1CC(O)COc1ccc(C(F)(F)F)cc1 (centres unmarked) [compound 94] | 1 to 10
Cc1ccccc1CN(CCCOc1cnc(C(F)(F)F)nc1)Cc1cccnc1 [compound 169] | ≤ 1
CC(C)(COc1cnc(C(F)(F)F)nc1)CN(Cc1cccnc1)Cc1ccccc1C(F)(F)F [compound 196] | 1 to 10

SMILES | EC (30% increase) [µM]
Cc1ccccc1CN(Cc1cncnc1)CC(O)COc1ccc(C(F)(F)F)cc1 (centres unmarked) [compound 23] | ≤ 1
Cc1ccccc1CN(CC(O)COc1ccc(C(F)(F)F)cc1)C(=O)c1cnn(C)c1 (centres unmarked) [compound 82] | ≤ 1
Cc1ccccc1CN(Cc1ccc[n+]([O-])c1)CC(O)COc1ccc(C(F)(F)F)cc1 (centres unmarked) [compound 51] | 1 to 10
Cc1ccccc1CN(CC(O)COc1ccc(C(F)(F)F)cc1)[C@@H](c1cccnc1)C(F)(F)F (some centres unmarked) [compound 198] | > 10
OC(COc1ccc(C(F)(F)F)cc1)CN1Cc2ccccc2C[C@H]1c1cccnc1 (some centres unmarked) [compound 132] | ≤ 1
FC(F)(F)c1ccc(OCCCN2Cc3ccccc3C[C@@H]2c2cccnc2)cc1 [compound 150] | 1 to 10
OC(COc1ccccn1)CN(Cc1ccccc1)Cc1ccccc1 (centres unmarked) [compound 10] | 1 to 10
OC(COc1ccc(C(F)(F)F)cc1)CN(Cc1ccncc1)Cc1ccncc1 (centres unmarked) [compound 41] | 1 to 10
[2H]C(C)(c1cccnc1)N(Cc1ccccc1C)CC(O)COc1ccc(C(F)(F)F)cc1 (centres unmarked) [compound 177] | > 10
CC(CNCC(O)COc1ccc(C(F)(F)F)cc1)(c1ccccc1)c1ccccc1 (centres unmarked) [compound 12] | 1 to 10
Cn1ccnc1C1Cc2ccccc2CN1CC(O)COc1ccc(C(F)(F)F)cc1 (centres unmarked) [compound 149] | 1 to 10
OC(COc1ccc(C(F)(F)F)cc1)CC1=Nc2ccccc2CC1c1cccnc1 (centres unmarked) [compound 57] | 1 to 10
Cc1ccccc1CN(CC(O)COc1ccc(C(F)(F)F)cc1)C(=O)c1cc[nH]n1 (centres unmarked) [compound 75] | 1 to 10
Cc1ccccc1CN(Cc1cccnn1)CC(C)(C)COc1ccc(C(F)(F)F)cc1 [compound 181] | ≤ 1
Cc1ccccc1CN(CC(O)COc1ccc(C(F)(F)F)cc1)c1cccnc1 (centres unmarked) [compound 55] | 1 to 10
Fc1ccccc1CN(Cc1cccnc1)CC1(COc2ccc(C(F)(F)F)cc2)CC1 [compound 143] | ≤ 1
O[C@@H](COc1ccc(C(F)(F)F)cc1)CN1Cc2ccccc2C[C@@H]1c1cccnc1 [compound 130] | ≤ 1
Cc1ccccc1CN(CCCOc1ccc(C(F)(F)F)cc1)Cc1cncn1C [compound 119] | ≤ 1
O=C(CCOc1ccc(C(F)(F)F)cc1)N1Cc2ccccc2CC1c1cccnc1 (centres unmarked) [compound 62] | 1 to 10
OC(COc1cncnc1)CN(Cc1ccccc1)Cc1ccccc1 (centres unmarked) [compound 16] | 1 to 10
CC(=O)OC(COc1ccc(C(F)(F)F)cc1)C(=O)N(Cc1cccnc1)Cc1ccccc1Cl (centres unmarked) [compound 127] | ≤ 1
OC(COc1ccc(C(F)(F)F)cc1)CN(Cc1cccnc1)Cc1ccccc1Cl (centres unmarked) [compound 25] | ≤ 1
O[C@H](COc1ccc(C(F)(F)F)cc1)CN1CCc2ccccc2[C@@H]1c1ccccc1 [compound 113] | 1 to 10
Cc1ccccc1CN(Cc1cccc(C(N)=O)c1)CC(O)COc1ccc(C(F)(F)F)cc1 (centres unmarked) [compound 49] | 1 to 10
OC(CNCC(c1ccccc1)c1ccccc1)COc1ccc(C(F)(F)F)cc1 (centres unmarked) [compound 14] | > 10
